Data set [1] concerns P. falciparum 3D7. The data set can be described thus: SYBR I dye DNA staining assay (SJCRH), P. falciparum 3D7. Conditions: read-out: EC50 3D7.
Description: (§1) SJCRH used the SYBR® I dye DNA staining assay, which measures proliferation of P. falciparum in human erythrocytes [27]. Plasmodium falciparum strains 3D7 (chloroquine-sensitive) and K1 (chloroquine-resistant) (American Type Culture Collection [ATCC], Manassas, VA, USA) were maintained using established methods [28]. The assay method is as previously described [29]. […] EC50 values were calculated with the robust investigation of screening experiments (RISE) algorithm with a four-parameter logistic equation.
(§2) This group used the SYBR® I dye DNA staining assay, which measures proliferation of P. falciparum in human erythrocytes [1]. Plasmodium falciparum strains 3D7 (chloroquine-sensitive) and K1 (chloroquine-resistant) (American Type Culture Collection [ATCC], Manassas, VA) were maintained in group O? erythrocytes (Key Biologics, LLC, Memphis, TN) using established methods [2]. Serial dilutions of the test compound in DMSO were prepared to provide 10 concentrations for each compound. […] After addition of 10 µL mixed DNA dye solution in PBS per test well (10× SYBR® I, [Invitrogen, Carlsbad, CA]), 0.5% [vol/vol] Triton X-100, 0.5 mg/mL saponin), plates were shaken for 1 min at 750 rpm and incubated in the dark for 90 min. Fluorescence was measured with an EnVision®spectrophotometer (PerkinElmer, Waltham, MA) [3]. […] EC50 values were calculated with the robust investigation of screening experiments (RISE) algorithm with a four-parameter logistic equation.
Data set [2] concerns P. falciparum K1. The data set can be described thus: SYBR I dye DNA staining assay (SJCRH), P. falciparum K1. Conditions: read-out: EC50 K1.
Description: as §1, §2
Data set [3] is described as follows: Pharmacokinetics in P. falciparum-infected humanized mice. The settings on record: for Cmax / Tmax: NOD-scid IL-2Rγ^null, mouse; for Cmax / Tmax / AUC (0–t): whole blood; for DNAUC(0–t): dose-normalized AUC(0–t); for DNAUC(0–t) / AUC (0–t): mean (SD).
Description: The pharmacokinetics of compounds after oral administration was determined concurrently in the same mice used for the therapeutic efficacy assay. Samples were taken at 0.25, 0.5, 1, 3, 6, 8, and 24 hours after the first dose. Compound levels were measured in 25 μL blood samples that were mixed with 25 μL of saponin (0.1% in water) and processed under standard liquid–liquid extraction conditions [39]. Pharmacokinetic parameters were calculated using WinNonlin 5.2 non-compartmental analysis.
For data set [4], the system named is P. falciparum Pf3D7^0087/N9. The data set can be described thus: Plasmodium falciparum huSCID humanized mouse model, four-day test. The settings on record: for reduction of parasitaemia versus vehicle: 10, 30 mg/kg sc target doses, up to maximum tolerated dose; for ED90: parasitaemia at day 7 after infection, once daily for four days, mean (95% CI).
Description: In vivo testing using this model was performed by GSK at Tres Cantos, against P. falciparum 3D7 (in vivo strain Pf3D7^0087/N9generated by GSK using Pf3D7 obtained from Eduardo Dei-Cas, Institute Pasteur, Lille, France [36]) growing in peripheral blood of female NOD-scid IL-2Rγ^null mice engrafted with human erythrocytes, i e, a ‘humanized’ mouse model, following published protocols [36, 37]. Briefly, animals were infected intravenously with 20×10^6 infected erythrocytes on day 0. […] Dosing was initiated at the maximum tolerated dose in mice on day 3 after infection and continued once daily for four days. Each experimental group was n = 3 mice unless otherwise stated. Control animals received vehicle only and a quality control assay used chloroquine at target doses of 3 mg/kg and 7 mg/kg. Venous blood samples for parasitology (2 μL) were taken at days 3, 5, and 7 after infection. Anti-malarial efficacy was assessed using a standard four-day test (i e, at day 7) and blood parasitaemia was measured by fluorescence-activated cell sorting (FACS) analysis [38]. The limit of detection (per cent of P. falciparum) was 0.01%. The number of parasites ×10^6 cells was recorded and data were analysed by non-linear fitting to a logistic equation of log10 (per cent parasitaemia at day 7 after infection) versus the dose level administered.
Per cent parasitaemia at day 7 after infection in treated versus control animals was analysed using a one factor ANOVA with Tukey’s post-test analysis. […] ED90 was calculated similarly. Analysis was performed using WinNonlin 5.2 and GraphPad Prism 5.0.
The subject of data set [5] is P. falciparum 3D7A strain. The data set can be described thus: Whole-cell [3H] hypoxanthine incorporation assay (GSK). Format: cell-based, Plasmodium falciparum. Conditions: mean of three independent measures. The protocol: GSK Tres Cantos used a whole-cell [^3H] hypoxanthine radioisotope incorporation assay to determine per cent parasite inhibition at 48 hours and 96 hours. Plasmodium falciparum 3D7A strain (Malaria Research and Reference Reagent Resource Center MR4; [32]) was maintained as described previously. Parasite growth inhibition assays and EC50 determination were carried out following standard methods. Three independent experiments were conducted for each time duration and test compound.
GlaxoSmithKline, Tres Cantos. A whole-cell [^3H]hypoxanthine radioisotope incorporation assay was performed to determine percent parasite inhibition at 48 h and 96 h. Plasmodium falciparum 3D7A strain (Malaria Research and Reference Reagent Resource Center MR4; http://www.mr4.org), was maintained in human erythrocytes (Transfusions Blood Bank, Madrid) with Albumax II medium, as previously described. Parasite growth inhibition assays and EC50 determination were carried out following standard methods. Briefly, cultures with 0.5% parasitemia and 2.5% hematocrit were incubated with the 2 μM of test drug for 48 h or 96 h. [^3H]hypoxanthine (0.8 μCi/mL) in 10 μL of RPMI was added 24 h before parasites were harvested (Cell Harvester 96™, TOMTEC, Hamden, CT). Incorporated radioactivity was quantified with a Wallac MicroBeta® TriLux (Model 1450 LS, PerkinElmer). Three independent experiments were conducted for each time duration and test compound.

[6] abbreviates: Plasmodium falciparum, 3D7, 72 h.
The mark [7] stands for this setting: Plasmodium falciparum, K1, 72 h.
The mark [8] stands for this setting: target dose 10 mg/kg subcutaneous (experimental 6.4 CEP-701, 8.3 CEP-1347).
Where [9] appears, read: target dose 30 mg/kg subcutaneous (experimental 15.0 CEP-701, 22.0 CEP-1347).
The mark [10] stands for this setting: mean (95% CI), SYBR I fluorescence assay, chloroquine-sensitive strain, 72 h.
Where [11] appears, read: mean (95% CI), SYBR I fluorescence assay, chloroquine-resistant strain, 72 h.
The mark [12] stands for this setting: target dose 50 mg/kg oral (experimental 36 mg/kg).

Like-named read-outs stand apart in the source and are kept apart here. Starred links: 1 amine or outer side, 2 acyl side, 3 side chain; linkers in the order of their positions; H or OH if unused. Positions of bridges follow the written chain, without caps; N, C: chain ends. Non-standard residues stand in square brackets, D forms with d. Residues, ends and D or L forms follow the SMILES beside them. Chains are numbered I, II in the order given. Actinocin(9to1) = Cc1c2oc3c(C)ccc(C(=O)[*:1])c3nc-2c(C(=O)[*:2])c(N)c1=O; NMeV = CN[C@H](C(=O)O)C(C)C; Sar = CNCC(=O)O

Broadly, the EC50 is the concentration at which the effect is half-maximal. `Nc1nc(N)c2nc(CNc3ccc(C(=O)N[C@@H](CCC(=O)O)C(=O)O)cc3)cnc2n1` [Aminopterin]: the values for the EC50 in data set [1] (setting [6]) and in data set [2] (setting [7]) were 320 nM and 1250 nM, respectively.

As to `CC(C)C[C@H](NC(=O)[C@H](Cc1ccccc1)NC(=O)c1cnccn1)B(O)O` [Bortezomib], the EC50 in data set [1] (setting [6]) amounted to 20 nM; in data set [2] (setting [7]), 80 nM.

Turning to `COc1cc(Nc2c(C#N)cnc3cc(OCCCN4CCN(C)CC4)c(OC)cc23)c(Cl)cc1Cl` [Bosutinib], the EC50 turned out to be 220 nM in data set [1] (setting [6]) and 650 nM in data set [2] (setting [7]).

In general, Cmax refers to the highest concentration seen after dosing. The term Tmax denotes the time at which the peak concentration occurs. As for `CCSCc1ccc2c(c1)c1c3c(c4c5cc(CSCC)ccc5n5c4c1n2[C@H]1C[C@](O)(C(=O)OC)[C@]5(C)O1)CNC3=O` [CEP-1347], in data set [3] (sc, 10 mg/kg), the concentration peaked (Cmax) at 830 ng/mL and the Tmax stood at 4.8 h. In data set [3] (sc, 30 mg/kg), the peak level (Cmax) was 730 ng/mL and the Tmax amounted to 6 h. Also, in data set [3] (setting [8]), the “DNAUC(0–t)” value is 0.98 (0.22) μg · h · mL^−1 · day^−1 and the “AUC (0–t)” value is listed as 8.1 (1.8) μg · h · mL. Further, in data set [3] (setting [9]), the “DNAUC(0–t)” value is 0.45 (0.092) μg · h · mL^−1 · day^−1 and the “AUC (0–t)” value is 9.9 (2.1) μg · h · mL. In addition, in data set [4], the “reduction of parasitaemia versus vehicle” value is “did not reach statistical significance”.

For the compound `CC(=O)[C@@]1(O)CC[C@H]2[C@@H]3C=C(Cl)C4=CC(=O)[C@@H]5C[C@@H]5[C@]4(C)[C@H]3CC[C@@]21C` [Cyproterone], the EC50 in data set [1] (setting [10]) came out at 560 nM; in data set [2] (setting [11]) it was 890 nM.

As to `Cc1c2oc3c(C)ccc(C(=O)N[C@@H]4C(=O)N[C@H](C(C)C)C(=O)N5CCC[C@H]5C(=O)N(C)CC(=O)N(C)[C@@H](C(C)C)C(=O)O[C@@H]4C)c3nc-2c(C(=O)N[C@@H]2C(=O)N[C@H](C(C)C)C(=O)N3CCC[C@H]3C(=O)N(C)CC(=O)N(C)[C@@H](C(C)C)C(=O)O[C@@H]2C)c(N)c1=O` [Dactinomycin] (I: T[dV]P[Sar][NMeV] / II: T[dV]P[Sar][NMeV]; ester I:1-I:C, II:1-II:C; linker I:N-II:N via Actinocin(9to1)), the EC50 in data set [1] (setting [6]) was determined as 0.9 nM; in data set [2] (setting [7]) it was 1 nM.

For `CN(CCCCCCCCCCN(C)C(=O)Oc1cccc([N+](C)(C)C)c1)C(=O)Oc1cccc([N+](C)(C)C)c1` [Demecarium], the results for the EC50 in data set [1] (setting [6]) and in data set [2] (setting [7]) were 510 nM and 300 nM, respectively.

With `Cc1cc(N)c2ccccc2[n+]1CCCCCCCCCC[n+]1c(C)cc(N)c2ccccc21` [Dequalinium], the EC50 in data set [1] (setting [6]) and in data set [2] (setting [7]) was 60 nM throughout.

In the case of `Cc1c(N(C)CS(=O)(=O)O)c(=O)n(-c2ccccc2)n1C` [Dipyrone], the EC50 was determined as 840 nM in data set [1] (setting [10]) and 500 nM in data set [2] (setting [11]).

Regarding `COc1cccc2c1C(=O)c1c(O)c3c(c(O)c1C2=O)C[C@@](O)(C(=O)CO)C[C@@H]3O[C@H]1C[C@H](N)[C@H](O)[C@H](C)O1` [Doxorubicin], the EC50 in data set [1] (setting [6]) is 210 nM; in data set [2] (setting [7]), 200 nM.

With `CS(=O)(=O)CCNCc1ccc(-c2ccc3ncnc(Nc4ccc(OCc5cccc(F)c5)c(Cl)c4)c3c2)o1` [Lapatinib], the values for the EC50 in data set [1] (setting [6]) and in data set [2] (setting [7]) were 560 nM and above 7370 nM, respectively.

On to `C[C@]12O[C@H](C[C@]1(O)CO)n1c3ccccc3c3c4c(c5c6ccccc6n2c5c31)CNC4=O` [Lestaurtinib], for which the EC50 stood at 490 nM in data set [1] (setting [6]) and 340 nM in data set [2] (setting [7]). Also, the Cmax was found to be 630 ng/mL in data set [3] (sc, 10 mg/kg) and 2800 ng/mL in data set [3] (sc, 30 mg/kg). Moreover, the Tmax in data set [3] (sc, 10 mg/kg) is 0.78 h; in data set [3] (sc, 30 mg/kg) it was 4 h. Moreover, the “DNAUC(0–t)” value in data set [3] (setting [8]) is 0.44 (0.072) μg · h · mL^−1 · day^−1; in data set [3] (setting [9]) it was 1.6 (0.47) μg · h · mL^−1 · day^−1. The “AUC (0–t)” value in data set [3] (setting [8]) is on record as 2.8 (0.46) μg · h · mL; in data set [3] (setting [9]) it was 23.8 (6.8) μg · h · mL. In addition, the “reduction of parasitaemia versus vehicle” value in data set [4] is reported as “did not reach statistical significance”.

The IC50 is the concentration at which inhibition is half-maximal. A high value points to weaker potency in that assay. `CC[C@@]1(O)C(=O)OCc2c1cc1n(c2=O)Cc2c-1nc1cc3c(cc1c2CN1CCN(C)CC1)OCCO3` [Lurtotecan] had an IC50 in data set [5] (Plasmodium falciparum) of 191 ± 62 nM.

With `CN(Cc1cnc2nc(N)nc(N)c2n1)c1ccc(C(=O)N[C@@H](CCC(=O)O)C(=O)O)cc1` [Methotrexate], the figures for the EC50 in data set [1] (setting [6]) and in data set [2] (setting [7]) were 10 nM and 20 nM, respectively.

Turning to `CN(C)c1ccc2nc3ccc(=[N+](C)C)cc-3sc2c1` [Methylene blue], the EC50 in data set [1] (setting [6]) and in data set [2] (setting [7]) was below 0.3 nM each time.

`CO[C@@H]1[C@H](N(C)C(=O)c2ccccc2)C[C@H]2O[C@]1(C)n1c3ccccc3c3c4c(c5c6ccccc6n2c5c31)C(=O)NC4` [Midostaurin]: in data set [1] (setting [6]), the EC50 is 350 nM.

With `CO[C@@]12[C@H](COC(N)=O)C3=C(C(=O)C(C)=C(N)C3=O)N1C[C@@H]1N[C@@H]12` [Mitomycin], the EC50 was determined as 970 nM in data set [1] (setting [6]) and 510 nM in data set [2] (setting [7]).

For the compound `C/C=C/C[C@@H](C)C(=O)[C@H]1C(=O)N[C@@H](C(C)C)C(=O)N(C)CC(=O)N(C)[C@@H](CC(C)C)C(=O)N[C@@H](C(C)C)C(=O)N(C)[C@@H](CC(C)C)C(=O)N[C@@H](C)C(=O)N[C@H](C)C(=O)N(C)[C@@H](CC(C)C)C(=O)N(C)[C@@H](CC(C)C)C(=O)N(C)[C@@H](C(C)C)C(=O)N1C` [PSC-833, valspodar], the Cmax in data set [3] (po, 50 mg/kg) came to 1390 ng/mL; in data set [3] (po, 100 mg/kg), 1010 ng/mL; in data set [3] (po, 200 mg/kg) it was 910 ng/mL. Further, the Tmax in data set [3] (po, 50 mg/kg) was determined as 3.3 h; in data set [3] (po, 100 mg/kg), 5.33 h; in data set [3] (po, 200 mg/kg) it was 2 h. The “DNAUC(0–t)” value in data set [3] (setting [12]) was 0.36 (0.082) μg · h · mL^−1 · day^−1; in data set [3] (target dose 100 mg/kg oral) it was 0.13 (0.04) μg · h · mL^−1 · day^−1; in data set [3] (target dose 200 mg/kg oral), 0.065 (0.03) μg · h · mL^−1 · day^−1. Besides, the “AUC (0–t)” value in data set [3] (setting [12]) is 12.90 (2.97) μg · h · mL; in data set [3] (target dose 100 mg/kg oral), 12.26 (4.25) μg · h · mL; in data set [3] (target dose 200 mg/kg oral), 13.05 (6.05) μg · h · mL. Besides, in data set [4] (blood exposure needed to inhibit parasitaemia at day 7 by 90% vs vehicle), the AUCED90 was above 17.33 μg · h · mL^−1 · day^−1. The ED90 in data set [4] and in data set [4] (listed as Valspodar) was above 200 mg/kg each time.

For the compound `N=C(N)c1ccc(OCCCCCOc2ccc(C(=N)N)cc2)cc1` [Pentamidine], the EC50 came out at 220 nM in data set [1] (setting [6]) and 50 nM in data set [2] (setting [7]).

On to `O=c1[nH]c2ccccc2n1C1CCN(CCCC(c2ccc(F)cc2)c2ccc(F)cc2)CC1` [Pimozide], for which the EC50 in data set [1] (setting [6]) is 700 nM; in data set [2] (setting [7]) it was above 12800 nM.

The compound `COc1ccc(OC)c(Cc2cnc3nc(N)nc(N)c3c2C)c1` [Piritrexim] returned an IC50 in data set [5] (Plasmodium falciparum) of 11 ± 1 nM.

As to `CC[C@H](C)C(=O)O[C@H]1C[C@H](O)C=C2C=C[C@H](C)[C@H](CC[C@@H](O)C[C@@H](O)CC(=O)O)[C@H]21` [Pravastatin], the half-maximal effective concentration (EC50) in data set [1] (setting [6]) was determined as 750 nM; in data set [2] (setting [7]), 120 nM.

Regarding `CCCNCC(O)COc1ccccc1C(=O)CCc1ccccc1` (stereo not shown) [Propafenone], the EC50 in data set [1] (setting [6]) was found to be 1220 nM; in data set [2] (setting [7]), 330 nM.

For the compound `CCN(CC)CCN(Cc1ccc(-c2ccc(C(F)(F)F)cc2)cc1)C(=O)Cn1cc(Cc2cnn(C)c2)c(=O)nc1SCc1ccc(F)cc1` [SB-435495], the IC50 in data set [5] worked out at 1130 ± 146 nM.

As for `CNC(=O)c1cc(Oc2ccc(NC(=O)Nc3ccc(Cl)c(C(F)(F)F)c3)cc2)ccn1` [Sorafenib], the values for the EC50 in data set [1] (setting [6]) and in data set [2] (setting [7]) were 2710 nM and 880 nM, respectively.

Take `Cc1ccnc(NS(=O)(=O)c2ccc(N)cc2)n1` [Sulfamerazine]: the EC50 in data set [1] (setting [6]) and in data set [2] (setting [7]) was 10 nM each time.

As to `CN1CCN(CC/C=C2/c3ccccc3Sc3ccc(S(=O)(=O)N(C)C)cc32)CC1` [Thiothixene], the figures for the EC50 in data set [1] (setting [6]) and in data set [2] (setting [7]) were 40 nM and 20 nM, respectively.
